Molecular target: high affinity nicotinic receptors
Conditions: read-out: Ki (nM), inhibition of L-[3H]nicotine binding; mouse brain membranes (cerebellum removed), 10 nM L-[3H]nicotine, 2 hr at 4° C.; Ki calculated from IC50 by the method of Cheng et al.
Experimental: Mice were killed by cervical dislocation. Brains were removed and placed on an ice-cold platform. […] Prior to each centrifugation step, the suspension was incubated at 37° C. for 5 min. to promote hydrolysis of endogenous acetylcholine. The final pellet was overlayered with buffer and stored at -70° C.
The binding of L-[^3 H]nicotine was measured using a 2 hr. incubation at 4° C. Incubations contained about 500 μg of protein and were conducted in 12 mm×75 mm polypropylene test tubes in a final incubation volume of 250 μl. The incubation buffer was Krebs-Ringers HEPES containing 200 mM TRIS buffer, pH 7.5. The binding reaction was terminated by filtration of the protein containing bound ligand onto glass fiber filters (Micro Filtration Systems) that had been soaked in buffer containing 0.5 percent polyethyleneimine. Filtration vacuum was -50 to -100 torr. Each filter was washed five times with 3 ml of ice-cold buffer. The filtration apparatus was cooled to 2° C. before use and was kept cold through the filtration process. […] The inhibition of L-[^3 H]nicotine binding by test compounds was determined by including one of eight different concentrations of the test compound in the incubation.

CN1CCC[C@@H]1c1cccnc1 [(R)-(+)-nicotine]
Ki: 113 nM

Reference: patent US5227391A, “Method for treatment of neurodegenerative diseases” (R. J. Reynolds Tobacco Company, priority 1992, dated 1993)
